The test system of data set [1] is Human keratinocytes (HaCat). The format is cell-based. The settings on record: for Malonaldehyde and 4-hydroxy alkenal: HaCat, untreated group taken as 100. As to the method:
Human keratinocytes (HaCat) were plated at a density of 1.0×10^6 per 60-mm dish and then cultured in penicillin/streptomycin-containing DMEM (10% FBS) media at conditions of 37° C. and 5% CO2 for 1 week. Then, the culture media were treated with 10^−4 M of each of sesamol, the sesamol derivative of Example 1, and tocopherol as appositive control, for 24 hours. At the next day, the media were treated with 4 mM of t-BHP (t-butyl hydroperoxide) together with each of said compounds and then cultured at conditions of 37° C. and 5% CO2 for 4 hours, after which the cells were collected. The collected cells were dissolved by repeatedly performing freezing/thawing processes, and the following tests were performed in accordance with the method described in an assay kit.
In other words, in the present invention, a lipid peroxide assay kit (Calbiochem) was used as a reagent, and lipid peroxidation was measured using the principle in which long-chain unsaturated fatty acids such as malonaldehyde and 4-hydroxy alkenal form stable compounds at 586 nm by reaction with said reagent. The measurement results are shown in Table 1 below in comparison with an untreated group taken as 100.

In a further data set the test system is Fibroblasts. The format is cell-based. The conditions noted are these: 10^-4 M; for Procollagen Synthesis (%): 24 h, serum-free media, untreated group taken as 100%. On the procedure: Fibroblasts were seeded into each well of a 24-well plate at density of 10^6 cells and cultured to 90% confluence. The cultured cells were cultured in serum-free media for 24 hours and then treated with 10^−4 M of each of tocopherol, sesamol and the sesamol derivative of Example 1, which have been dissolved in serum-free media. Then, the cells were cultured in a CO2 incubator for 24 hours. The supernatants of the cell culture media were collected and observed for an increase or decrease in procollagen using a Procollagen type (A) kit. The test results are shown in Table 2 below, in which the effect of each compound on the procollagen synthesis is compared with that of an untreated group, taken as 100%.

The subject of another data set is alkaline phosphatase. In words: Hydrolysis by phosphatase in phosphate buffer, HPLC of 3-aminopropane phosphoric acid formed. The conditions noted are these: alkaline phosphatase (Sigma-Aldrich), phosphate buffer pH 7.4, HPLC, FIG. 1. The format is in vitro ADME. As to the method:
In order to examine whether the sesamol, 3-aminopropane phosphoric acid diester is hydrolyzed by phosphatase present on the skin into sesamol and 3-aminopropane phosphoric acid, the following test was performed. The sesamol, 3-aminopropane phosphoric acid diester of Example 1 and phsophatase were added in phosphate buffer (pH 7.4), followed by hydrolysis. As the phosphatase, alkaline phosphatase commercially available from Sigma-Aldrich Co. was used. The amount of 3-aminopropane phosphoric acid formed as the hydrolysis progressed was measured by HPLC (high-performance liquid chromatography), and the measurement results are shown in FIG. 1.

Where [2] appears, read: 10^-4 M compound 24 h, then 4 mM t-BHP together with compound 4 h.

The values that follow come from US7943599B2 (priority 2005, dated 2011).

Read-outs that look alike come from different tables or passages of the source.

Consider `NCCCOP(=O)(O)Oc1ccc2c(c1)OCO2` [Sesamol derivative of Example 1, sesamol, 3-aminopropane phosphoric acid diester (I)], for which the “Malonaldehyde and 4-hydroxy alkenal” value in data set [1] (setting [2]) is given as 260. Further, in data set [1] (10^-4 M, t-BHP-treated HaCat, compared with sesamol and tocopherol), the “antioxidant effect (in words)” value was “antioxidant effect similar to those of sesamol and the positive control tocopherol”. Moreover, the “Procollagen Synthesis (%)” value in the data set on Fibroblasts amounted to 125%. The “effect on collagen biosynthesis (in words)” value in the data set on Fibroblasts (fibroblasts) is “showed the effect of increasing collagen biosynthesis”. In addition, the “hydrolysis by phosphatase into sesamol and 3-aminopropane phosphoric acid” value in the data set on alkaline phosphatase is recorded as “can be hydrolyzed by phosphatase”.
Consider tocopherol, for which the “Malonaldehyde and 4-hydroxy alkenal” value in data set [1] (setting [2]) worked out at 270. The “Procollagen Synthesis (%)” value in the data set with Fibroblasts was found to be 110%.
In the case of `CC(C)(C)OO` [t-BHP, t-butyl hydroperoxide], the “Malonaldehyde and 4-hydroxy alkenal” value in data set [1] (4 mM t-BHP alone, 4 h) is 320.
For the molecule `Oc1ccc2c(c1)OCO2` [Sesamol, sesamol], the “Malonaldehyde and 4-hydroxy alkenal” value in data set [1] (setting [2]) is on record as 250. Besides, the “Procollagen Synthesis (%)” value with Fibroblasts stood at 103%.
